From US9340577B2, “HLA binding motifs and peptides and their uses” (priority 1992, dated 2016)
Like-named read-outs stand apart in the source and are kept apart here. No end group written: not given here.

Columns and labels:
Assay in all cases: biochemical
[1] = biological target: DR7 (DRB1*0701) (Homo sapiens, UniProt P01903+P01911, A100R/A102G/A103Q/D57E/D86V/E43K/F76Y/K127E/L162R/M171V/P40G/Q125H/Q99D/R33Q/R42Y/R54Q/S133A/S66F/T210M/V115G/Y107V/Y59L/Y89S); type: binding
[2] = biological target: DRB1*0301 (Homo sapiens, UniProt P01903+P01911, A100K/A102G/A103R/A169T/F55Y/I96L/K41T/L162R/M171V/P40S/Q125H/Q178H/Q39Y/R42S/S66N/T106N/T262R/W38E/Y61H); type: binding
Chain of DRB1*0301 (P01903 26-254 limits assumed, other chains not shown): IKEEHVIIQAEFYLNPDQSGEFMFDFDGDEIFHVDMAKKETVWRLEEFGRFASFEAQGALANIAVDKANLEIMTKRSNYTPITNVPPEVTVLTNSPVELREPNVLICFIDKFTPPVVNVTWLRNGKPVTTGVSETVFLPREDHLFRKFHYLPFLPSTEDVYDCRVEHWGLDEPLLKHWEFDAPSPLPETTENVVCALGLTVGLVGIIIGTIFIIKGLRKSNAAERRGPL

[3] = biological target: DRB1*0802 (Homo sapiens, UniProt P01903+P01911, A100R/A103L/A169T/F76Y/H45Y/I96F/K41T/L162R/M171V/P40S/Q125H/Q178H/Q39Y/Q99D/R218S/R42G/S66Y/V115G/W38E); type: binding
[4] = biological target: DRB1*0901 (Homo sapiens, UniProt P01903+P01911, A100R/A103E/D57H/D86V/F55Y/F60I/F76Y/I96F/K127E/L162R/M171V/P40D/Q125H/Q99R/R33Q/R42F/S133A/S66N/T210M/V115G/W38K/Y107V/Y59G/Y89S); type: binding
[5] = biological target: DRB1*1201 (Homo sapiens, UniProt P01903+P01911, A100R/A169T/D57E/D86V/F55L/H45Y/K41T/L162R/M171V/P40S/Q125H/Q178H/Q39Y/Q99D/R42G/S66L/T262R/V114A/V67L/W38E/Y59H/Y61H/Y89S); type: binding
[6] = biological target: DRB1*1302 (Homo sapiens, UniProt P01903+P01911, A100E/A169T/K41T/L162R/M171V/P40S/Q125H/Q178H/Q39Y/Q99D/R42S/S66N/T262R/V115G/W38E/Y61H); type: binding
Chain of DRB1*1302 (P01903 26-254 limits assumed, other chains not shown): as above

[7] = biological target: DRB1*1501 (Homo sapiens, UniProt P01903+P01911); type: binding
[8] = biological target: DRB4*0101 (Homo sapiens, UniProt P01903+P13762, G164S); type: binding
[9] = biological target: DRB1*1101 (Homo sapiens, UniProt P01903+P01911, A100R/A169T/A87E/I96F/K41T/L162R/M171V/P40S/Q125H/Q178H/Q39Y/Q99D/R42S/S66Y/T262R/V115G/W38E)
Chain of DRB1*1101 (P01903 26-254 limits assumed, other chains not shown): as above

[10] = biological target: DRB5*0101 (Homo sapiens, UniProt P01903+Q30154)
[11] = biological target: DR1 (DRB1*0101) (Homo sapiens, UniProt P01903+P01911, A100R/D57E/F55L/F60I/F76Y/I96L/L162R/M171V/P40L/Q125E/R42F/V115G/Y59C); type: binding
[12] = biological target: DR4w4 (DRB1*0401) (Homo sapiens, UniProt P01903+P01911, A100K/A169T/F76Y/I96L/K127E/L162R/M171V/N62H/P40V/Q125Y/R42H/S133A/S149N/S66Y/V115G/V209L/W38E); type: binding

## WKLIRMECALLYTAK [Peptide 90.0199]
[1]
  IC50: 3.16 µM
[2]
  IC50: 0.141 µM
[3]
  IC50: 2.7 µM
[4]
  IC50: 4 µM
[5]
  IC50: 0.159 µM
[6]
  IC50: 0.098 µM
[7]
  IC50: 0.509 µM
[8]
  IC50: 0.062 µM
[9]; Binding affinity DRB1 *1101
  IC50: 2 µM
[10]; Binding affinity DRB5 *0101
  IC50: 3.63 µM

## WKAVRHENVLYYKAR [Peptide 90.0230]
[11]
  IC50: 0.164 µM
[12]
  IC50: 0.718 µM
[1]
  IC50: 0.666 µM
[2]
  IC50: 0.076 µM
[3]
  IC50: 0.613 µM
[5]
  IC50: 0.415 µM
[6]
  IC50: 0.264 µM
[8]
  IC50: 0.189 µM
[9]
  IC50: 2.12 µM
[10]
  IC50: 0.762 µM

## IIHLKGDPNSLKCLR [Peptide 90.0228]
[12]
  IC50: 0.121 µM
[1]
  IC50: 2.54 µM
[2]
  IC50: 0.011 µM
[3]
  IC50: 0.877 µM
[4]
  IC50: > 20 µM
[5]
  IC50: 5.83 µM
[6]
  IC50: 0.163 µM
[8]
  IC50: 1.9 µM
[9]; Binding affinity DRB1 *1101
  IC50: > 20 µM
[10]; Binding affinity DRB5 *0101
  IC50: 1.33 µM

## RYRFQKYKTLFVDVT [Peptide 90.0019]
[11]
  IC50: 0.074 µM
[12]
  IC50: 0.623 µM
[1]
  IC50: 0.043 µM
[2]
  IC50: 5.63 µM
[3]
  IC50: 0.407 µM
[4]
  IC50: 0.226 µM
[5]
  IC50: 4.51 µM
[6]
  IC50: 2.17 µM
[7]
  IC50: 0.59 µM
[8]
  IC50: 4.11 µM
[9]; Binding affinity DRB1 *1101
  IC50: 0.728 µM

## CSCC[C@H](NC(=O)[C@H](Cc1ccc(O)cc1)NC(=O)[C@H](Cc1ccc(O)cc1)NC(=O)[C@@H](NC(=O)[C@@H](N)CO)C(C)C)C(=O)N[C@H](C(=O)N[C@@H](CC(=O)O)C(=O)N[C@@H](C)C(=O)NCC(=O)N[C@H](C(=O)N[C@@H](Cc1c[nH]c2ccccc12)C(=O)N[C@@H](CC(=O)O)C(=O)N[C@@H](CCCCN)C(=O)N[C@H](C(=O)N[C@@H](C)C(=O)O)[C@@H](C)O)[C@@H](C)O)[C@@H](C)O [Peptide 90.0182]
[11]
  IC50: 0.0093 µM
[2]
  IC50: 0.328 µM
[3]
  IC50: 8.46 µM
[4]
  IC50: 1.6 µM
[5]
  IC50: 0.708 µM
[6]
  IC50: 0.014 µM
[7]
  IC50: 0.043 µM
[8]
  IC50: 0.007 µM
[9]; Binding affinity DRB1 *1101
  IC50: 2.88 µM
[10]; Binding affinity DRB5 *0101
  IC50: > 20 µM

## ESDMAFEYALLADSN [Peptide 90.0055]
[11]
  IC50: 0.057 µM
[12]
  IC50: 0.024 µM
[2]
  IC50: 0.591 µM
[3]
  IC50: 5.73 µM
[4]
  IC50: 0.826 µM
[5]
  IC50: 16.3 µM
[6]
  IC50: 1.85 µM
[7]
  IC50: 0.428 µM
[8]
  IC50: 0.165 µM
[9]; Binding affinity DRB1 *1101
  IC50: 4.68 µM

## DDRWPYLHSRLVVFT [Peptide 89.0058]
[11]
  IC50: 0.029 µM
[12]
  IC50: > 20 µM
[1]
  IC50: 0.068 µM
[2]
  IC50: > 20 µM
[3]
  IC50: 1.7 µM
[4]
  IC50: 0.158 µM
[5]
  IC50: 0.297 µM
[6]
  IC50: 2.19 µM
[7]
  IC50: 0.284 µM
[8]
  IC50: 0.297 µM
[10]; Binding affinity DRB5 *0101
  IC50: > 20 µM

## CC[C@H](C)[C@H](NC(=O)CNC(=O)[C@@H](NC(=O)[C@H](CCCCN)NC(=O)[C@H](Cc1ccc(O)cc1)NC(=O)[C@H](Cc1c[nH]c2ccccc12)NC(=O)[C@H](Cc1ccc(O)cc1)NC(=O)[C@@H](N)CC(C)C)[C@@H](C)O)C(=O)N[C@@H](CO)C(=O)N[C@@H](CC(N)=O)C(=O)N[C@H](C(=O)N[C@@H](CO)C(=O)N[C@@H](CCC(=O)O)C(=O)N[C@H](C(=O)N[C@@H](Cc1ccc(O)cc1)C(=O)O)C(C)C)[C@@H](C)CC [Peptide 89.0009]
[11]
  IC50: 0.041 µM
[12]
  IC50: 0.02 µM
[1]
  IC50: 0.019 µM
[2]
  IC50: > 20 µM
[3]
  IC50: 1.44 µM
[4]
  IC50: 0.631 µM
[5]
  IC50: 4.62 µM
[6]
  IC50: 0.319 µM
[9]; Binding affinity DRB1 *1101
  IC50: 6.28 µM
[10]; Binding affinity DRB5 *0101
  IC50: 0.634 µM

## QQTVCREGVKRRLIL [Peptide 90.0129]
[11]
  IC50: 5.89 µM
[12]
  IC50: 0.082 µM
[1]
  IC50: > 20 µM
[2]
  IC50: 0.711 µM
[3]
  IC50: 3.74 µM
[4]
  IC50: 3.92 µM
[5]
  IC50: 12.7 µM
[6]
  IC50: > 20 µM
[7]
  IC50: > 20 µM
[8]
  IC50: 0.011 µM
[9]; Binding affinity DRB1 *1101
  IC50: 1.02 µM
[10]
  IC50: > 20 µM

## CC[C@H](C)[C@H](NC(=O)[C@H](Cc1c[nH]cn1)NC(=O)[C@H](C)NC(=O)[C@H](Cc1ccc(O)cc1)NC(=O)[C@H](CC(C)C)NC(=O)[C@@H](NC(=O)[C@H](Cc1ccccc1)NC(=O)[C@@H]1CCCN1C(=O)[C@H](CCC(N)=O)NC(=O)[C@@H](NC(=O)[C@H](CC(C)C)NC(=O)[C@@H](NC(=O)[C@H](CCCCN)NC(=O)[C@@H](N)Cc1ccccc1)[C@@H](C)O)[C@@H](C)CC)[C@@H](C)CC)C(=O)N[C@@H](CCC(N)=O)C(=O)O [Peptide 89.0025]
[11]
  IC50: 0.027 µM
[12]
  IC50: 0.728 µM
[1]
  IC50: 0.882 µM
[2]
  IC50: > 20 µM
[4]
  IC50: 0.097 µM
[5]
  IC50: 0.513 µM
[7]
  IC50: 0.02 µM
[8]
  IC50: 0.0096 µM
[10]; Binding affinity DRB5 *0101
  IC50: 8.43 µM
